Source: patent US20130040882A1, “USE OF FIBROBLAST GROWTH FACTOR FRAGMENTS” (NOVARTIS AG, priority 2003, published 2013)
Where two headings read alike, the source gives them in different places.

Test system: transcript levels in tissues (GH/IGF and glucagon/insulin axes, SSTR signalling)
Format: in vivo, cynomolgus monkeys

cyclo[4-(NH2—C2H4—NH—CO—O)Pro-Phg-DTrp-Lys-Tyr(4-Bzl)-Phe] [SOM230]
Calcium/calmodulin-dependent protein kinase (CaM kinase) II β expression ↑ (fold change) (spleen): II β ↑ x2
Calmodulin 1 (phosphorylase kinase, δ) expression ↑ (fold change) (spleen): kinase, δ) ↑ x2
Calmodulin 2 (phosphorylase kinase, δ) expression ↑ (fold change) (spleen): kinase, δ) ↑ x1.5
Caspase 8, apoptosis-related cysteine protease expression ↑ (fold change) (spleen): ↑ x2.5
Cdk 2 expression ↑ (fold change) (spleen): Cdk 2 ↑ x1.5
Cdk 5, regulatory subunit 1 (p35) expression ↑ (fold change) (spleen): 1 (p35) ↑ x2
Cdk 6 expression ↑ (fold change) (spleen): Cdk 6 ↑ x3
Cyclin D2 expression ↑ (fold change) (spleen): x1.5
Cyclin I expression ↓ (fold change) (spleen): Cyclin I ↓ x1.5
Death-associated protein expression ↑ (fold change) (spleen): protein ↑ x1.5
Dopamine receptor D4 expression ↓ (fold change) (spleen): receptor D4 ↓ x2
EGF (β-urogastrone) expression ↓ (fold change) (spleen): urogastrone) ↓ x2
Follistatin-like 1 expression ↑ (fold change) (spleen): ↑ x1.5
Gastric inhibitory polypeptide receptor expression ↑ (fold change) (spleen): ↑ x2
Gene expression (AvgDiff): IGF-1 (spleen): 85
Gene expression (AvgDiff): IGFBP6 (spleen): 1,043
Gene expression (AvgDiff): SSTR2 (spleen): 93
HGF activator inhibitor precursor expression ↑ (fold change) (spleen): x1.5
IFN regulatory factor 2 expression ↑ (fold change) (spleen): factor 2 ↑ x3.5
IFN-inducible RNA-dependent protein kinase expression ↑ (fold change) (spleen): ↑ x2.5
IFNγ receptor 2 (IFNγ transducer 1) expression ↑ (fold change) (spleen): x1.5
IFNγ responsive transcript expression ↑ (fold change) (spleen): ↑ x2
IGF-1 expression ↑ (fold change) (spleen): IGF-1 ↑ x1.5
IGFBP6 expression ↑ (fold change) (spleen): IGFBP6 ↑ x2.5
IL 1 receptor-like 1 expression ↑ (fold change) (spleen): 1 ↑ x2
IL-8 receptor type B expression ↑ (fold change) (spleen): B ↑ x1.5
IP-4-phosphatase, type 1, isoform b expression ↑ (fold change) (spleen): ↑ x2
K+ large conductance Ca++-activated channel, subfamily M, β member 1 expression ↑ (fold change) (spleen): ↑ x2.5
K+ voltage-gated channel, shaker-related subfamily, member 3 expression ↓ (fold change) (spleen): member 3 ↓ x3
LTb4 (chemokine rceptor-like 1) expression ↑ (fold change) (spleen): rceptor-like 1) ↑ x3
Nuclear factor of activated T-cells, cytoplasmic, calcineurin-dependent 1 expression ↓ (fold change) (spleen): dependent 1 ↓ x5
PDGF, α polypeptide expression ↑ (fold change) (spleen): polypeptide ↑ x2.5
PDGFR, α polypeptide expression ↑ (fold change) (spleen): polypeptide ↑ x1.5
PI-3-kinase, catalytic, α polypeptide expression ↓ (fold change) (spleen): polypeptide ↓ x2.5
PI-3-kinase, class 2, β polypeptide expression ↑ (fold change) (spleen): ↑ x1.5
PI-3-kinase, class 3 expression ↑ (fold change) (spleen): 3 ↑ x2
PKC, α binding protein expression ↑ (fold change) (spleen): protein ↑ x2
PLA2 expression ↑ (fold change) (spleen): PLA2 ↑ x2
PTHR 1 expression ↓ (fold change) (spleen): PTHR 1 ↓ x2.5
Phosphatidyl inositol glycan, class B expression ↑ (fold change) (spleen): B ↑ x1.5
Programmed cell death 10 expression ↑ (fold change) (spleen): death 10 ↑ x1.5
Putative chemokine receptor; GTP-binding protein expression ↑ (fold change) (spleen): ↑ x2.5
Rb binding protein expression ↑ (fold change) (spleen): ↑ x2
Rb-binding protein 8 expression ↑ (fold change) (spleen): 8 ↑ x1.5
S-phase kinase-associated protein 1A (p19A) expression ↑ (fold change) (spleen): 1A (p19A) ↑ x2
SSTR2 expression ↑ (fold change) (spleen): SSTR2 ↑ x2
Solute carrier family 9 (Na+/H+ exchanger) isoform 3 regulatory factor 1 expression ↑ (fold change) (spleen): ↑ x10.5
TGF induced protein expression ↑ (fold change) (spleen): protein ↑ x1.5
TGFβ receptor III (betaglycan, 300 kD) expression ↓ (fold change) (spleen): ↓ x1.5
TNF (cachectin) expression ↑ (fold change) (spleen): ↑ x2
TNF (ligand) superfamily, member 13 expression ↑ (fold change) (spleen): member 13 ↑ x2.5
TNFR superfamily, member 12 expression ↑ (fold change) (spleen): member 12 ↑ x1.5
Tumour protein p53-binding protein expression ↑ (fold change) (spleen): ↑ x1.5
VEGF expression ↑ (fold change) (spleen): VEGF ↑ x1.5
Vasodilatator-stimulated phosphoprotein expression ↑ (fold change) (spleen): phosphoprotein ↑ x2
β adrenergic receptor kinase 1 expression ↑ (fold change) (spleen): kinase 1 ↑ x3
S-phase kinase-associated protein 1A expression ↑ (fold change) (spleen, second entry, without (p19A)): 1A ↑ x2
ATPase, Ca++ transporting, cardiac muscle, fast twitch 1 expression ↓ (fold change) (thyroid): ↓ x4.5
Adenylate cyclase activating polypeptide precursor expression ↓ (fold change) (thyroid): x1.5
Adrenergic, α-2C-, receptor expression ↓ (fold change) (thyroid): ↓ x2.5
Bcl-2 binding component 3 expression ↓ (fold change) (thyroid): ↓ x2
Brain cannabinoid receptor 1 expression ↓ (fold change) (thyroid): ↓ x2
CD2 antigen (cytoplasmic tail)-binding protein 2 expression ↑ (fold change) (thyroid): ↑ x3.5
CD2 antigen (p50), sheep red blood cell receptor expression ↓ (fold change) (thyroid): ↓ x7.5
COL1A1 and PDGFB fusion transcript expression ↓ (fold change) (thyroid): transcript ↓ x6
Cadherin 13, H-cadherin (heart) expression ↑ (fold change) (thyroid): ↑ x2
Calcium/calmodulin dependent protein kinase 1 expression ↓ (fold change) (thyroid): ↓ x2
Calcium/calmodulin-dependent PK IV expression ↓ (fold change) (thyroid): IV ↓ x7.5
Calmodulin-dependent PK IV (CaM-kinase IV) expression ↓ (fold change) (thyroid): IV) ↓ x7.5
Cannabinoid receptor 2 (macrophage) expression ↑ (fold change) (thyroid): ↑ x3
Cdc-like 5 (cholinesterase-related cell division controller) expression ↓ (fold change) (thyroid): x2
Cdk 5, regulatory subunit 1 (p35) expression ↓ (fold change) (thyroid): subunit 1 (p35) ↓ x5
Cdk (CDC2-like) expression ↓ (fold change) (thyroid): Cdk (CDC2-like) ↓ x9
Chemokine (C-X-C motif), receptor 4 (fusin) expression ↓ (fold change) (thyroid): ↓ x3
Chole-cystokinin B receptor expression ↓ (fold change) (thyroid): receptor ↓ x3
Cyclin B2 expression ↓ (fold change) (thyroid): Cyclin B2 ↓ x2.5
DAG 1 kinase, α (80 kD) expression ↓ (fold change) (thyroid): (80 kD) ↓ x4
Egf-like module containing, mucin-like, hormone receptor-like sequence 1 expression ↓ (fold change) (thyroid): sequence 1 ↓ x5
FKBP-associated protein expression ↓ (fold change) (thyroid): protein ↓ x2.5
Flt3 ligand expression ↓ (fold change) (thyroid): Flt3 ligand ↓ x4.5
Fms-related tyrosine kinase 1(VEGF/vascular permeability factor receptor) expression ↓ (fold change) (thyroid): ↓ x2
GABA (A) receptor, γ2 precursor expression ↓ (fold change) (thyroid): ↓ x1.5
GABA (B) receptor 1, isoform a precursor expression ↑ (fold change) (thyroid): ↑ x2.5
Gastric inhibitory polypeptide 1 receptor expression ↓ (fold change) (thyroid): receptor ↓ x2
Gene expression (AvgDiff): IGF-1 (thyroid): 58
Glutamate receptor, metabotropic 2 precursor expression ↓ (fold change) (thyroid): precursor ↓ 3.5
Growth arrest-specific 1 expression ↓ (fold change) (thyroid): 1 ↓ x2.5
IFNα-inducible protein 27 expression ↑ (fold change) (thyroid): 27 ↑ x3
IFNγ responsive transcript expression ↓ (fold change) (thyroid): ↓ x1.5
IFNγ-inducible protein 30 expression ↑ (fold change) (thyroid): protein 30 ↑ x3.5
IGF-1 expression ↓ (fold change) (thyroid): IGF-1 ↓ x1.5
IL2-inducible T-cell kinase expression ↓ (fold change) (thyroid): ↓ x12
IL9 receptor expression ↓ (fold change) (thyroid): IL9 receptor ↓ x2
IP3 receptor type 3 expression ↓ (fold change) (thyroid): type 3 ↓ x1.5
K+ voltage-gated channel, shaker-related subfamily, member 3 expression ↓ (fold change) (thyroid): ↓ x4.5
LTB4 receptor (chemokine receptor-like 1) expression ↓ (fold change) (thyroid): ↓ x1.5
Lymphocyte specific protein tyrosine kinase expression ↓ (fold change) (thyroid): ↓ x4
P56lck expression ↓ (fold change) (thyroid): P56lck ↓ x18
PDGF-associated Protein expression ↑ (fold change) (thyroid): Protein ↑ x2
PDGFR α expression ↓ (fold change) (thyroid): ↓ x3
PDGFR β expression ↑ (fold change) (thyroid): ↑ x2
PIP 5-phosphatase type IV expression ↓ (fold change) (thyroid): type IV ↓ x3
PLC, γ1 (formerly subtype 148) expression ↓ (fold change) (thyroid): ↓ x2
Phosphatidyl ethanolamine N-methyltransferase expression ↑ (fold change) (thyroid): ↑ x2
Pro-platelet basic protein (includes platelet basic protein, β-thromboglobulin, connective tissue-activating peptide III, neu) 2 expression ↑ (fold change) (thyroid): 2 ↑ x3.5
RAG1 expression ↓ (fold change) (thyroid): RAG1 ↓ x18
RAG2 expression ↓ (fold change) (thyroid): RAG2 ↓ x5
RANTES expression ↑ (fold change) (thyroid): RANTES ↑ x10.5
SH2 domain protein 1A, Duncan's disease (lymphoproliferative syndrome) expression ↓ (fold change) (thyroid): ↓ x7.5
Signalling lymphocytic activation molecule expression ↓ (fold change) (thyroid): ↓ x4.5
Solute carrier family 21 (PG transporter), member 2 expression ↑ (fold change) (thyroid): member 2 ↑ x2
TCR ζ chain precursor expression ↓ (fold change) (thyroid): ↓ x5.5
TNF (ligand) superfamily, member 10 expression ↑ (fold change) (thyroid): ↑ x2
TSHR expression ↓ (fold change) (thyroid): TSHR ↓ x2
Thrombospondin 2 expression ↑ (fold change) (thyroid): 2 ↑ x2
Transcription factor 7 (T-cell specific, HMG-box) expression ↓ (fold change) (thyroid): box) ↓ x16.5
VWF precursor expression ↑ (fold change) (thyroid): precursor ↑ x2
c-AMP responsive element binding protein 1 expression ↓ (fold change) (thyroid): protein 1 ↓ x2
Endothelial differentiation-related factor 1 expression, direction of change (thyroid, arrow only, factor not given): related factor 1 ↑
